# Test results: patent US9206173B2, “Heterocyclic compounds for the treatment of stress-related conditions” (OTSUKA PHARMACEUTICAL CO., LTD., priority 2009, dated 2015)
# Structures can show the parent of a compound that is named as a salt.
# Target: human GPR10 (Homo sapiens (Human), UniProt P49683)
# Assay: Inhibitory activity on binding of [3H]-PrRP to GPR10 (HEK 293 cell membrane fraction)
# Conditions: [3H]-PrRP 1 nM, human GPR10-expressing HEK 293 cell membrane fraction; Ki from IC50 by Cheng-Prussoff formula
# Description: Inhibitory Activity on Binding of [^3H]-PrRP to GPR10
# Human GPR10 receptor expressing human embryonic kidney cells, HEK 293 cells, were cultured in Dulbecco's Modified Eagle's medium supplemented with 10% fetal bovine serum and 1% penicilline-streptmycin at 37° C., in 5% carbon dioxide gas conditions. The medium was removed and the cells were recovered in a phosphate buffer to prepare a cell suspension. The cell suspension was homogenated on ice by an ultrasonic cell homogenizer (Microson™ type XL200) and centrifuged at 40,000 g for 10 minutes at 4° C. After the supernatant was discarded, Buffer A (20 mM HEPES, 10 mM EDTA, 1 μl/ml protease inhibiting cocktail, pH 7.4) was added to the pellet. The pellet was suspended by the ultrasonic cell homogenizer, then the suspension was centrifuged at 40,000 g, for 10 minutes at 4° C. After this operation was repeated once again, the supernatant was discarded, Buffer B (20 mM HEPES, 0.1 mM EDTA, pH 7.4) was added to the pellet, and the pellet was suspended by the ultrasonic homogenizer. This was stored at a freezer of −80° C. as a cell membrane fraction until use in a binding test.
# To each well of a 96-well plate, 150 μl of assay buffer (20 mM HEPES, 10 mM EDTA, 1 μl/ml protease inhibiting agent cocktail, pH 7.4), 20 μl of cell membrane fraction, 10 μl of test compound and [^3H]-PrRP (final concentration 1 nM) were added and incubated at room temperature for 90 minutes. After completion of the reaction, using a cell harvester, the cell-membrane fraction sample product was filtered under aspiration by a glass fiber filter plate (Unifilter; GF/B) previously treated with 0.5% polyethylene imine. The filter was washed with a 50 mM Tris hydrochloric acid buffer (pH 7.4) three times. After the filter was dried in a dryer (50° C.) for about 3 hours, 40 μl of liquid scintillation cocktail (MicroScint-O) was added to each well and radio activity was measured by a scintillation counter (Packard Topcount). The radio activity in the presence of an excessive amount of non-labeled PrRP (final concentration: 100 nM) was regarded as non-specific binding.
# The binding inhibition rate was calculated based on calculating formula: 100−(radio activity when a compound is added−radio activity of non-specific binding)÷(radio activity when a solvent is added−radio activity of non-specific binding)×100.
# An IC50 value was calculated based on the concentration dependent reaction using a non-linear analysis program and a Ki value was calculated using Cheng-Prussoff formula.
# human GPR10, sequence (P49683 whole entry): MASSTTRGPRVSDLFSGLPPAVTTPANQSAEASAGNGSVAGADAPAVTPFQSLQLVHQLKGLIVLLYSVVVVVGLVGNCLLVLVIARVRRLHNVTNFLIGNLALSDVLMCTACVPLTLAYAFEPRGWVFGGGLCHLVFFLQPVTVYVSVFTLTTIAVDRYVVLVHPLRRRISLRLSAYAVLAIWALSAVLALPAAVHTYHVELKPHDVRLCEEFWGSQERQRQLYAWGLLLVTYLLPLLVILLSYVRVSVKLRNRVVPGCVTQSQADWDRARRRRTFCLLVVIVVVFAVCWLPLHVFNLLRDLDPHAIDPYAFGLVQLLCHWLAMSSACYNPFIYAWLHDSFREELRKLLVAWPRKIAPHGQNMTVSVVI
row,SMILES,Ki [nM]
1,"COn1c(N[C@H](c2ccc(Cl)cc2)C(C)C)nc2c(c1=O)CN(C(=O)c1ccc3c(c1)OCCO3)CC2 [Example 2479, 2-[(S)-1-(4-chlorophenyl)-2-methylpropylamino]-6-(2,3-dihydrobenzo[1,4]dioxine-6-carbonyl)-3-methoxy-5,6,7,8-tetrahydro-3H-pyrido[4,3-d]pyrimidin-4-one]",42
2,"COn1c(N[C@@H](C)C2CCCCC2)nc2c(c1=O)CN(C(=O)c1ccc(C#N)cc1F)CC2 [Example 2469, 4-[2-((S)-1-cyclohexylethylamino)-3-methoxy-4-oxo-3,5,7,8-tetrahydro-4H-pyrido[4,3-d]pyrimidine-6-carbonyl]-3-fluorobenzonitrile]",56
3,"C#CCn1c(N[C@@H](C)c2ccc(C(F)(F)F)cc2)nc2c(c1=O)CN(C(=O)c1cccc(C#N)c1)CC2 [Example 2476, 3-{4-oxo-3-(2-propynyl)-2-[(S)-1-(4-trifluoromethylphenyl)ethylamino]-3,5,7,8-tetrahydro-4H-pyrido[4,3-d]pyrimidine-6-carbonyl}benzonitrile]",9
4,"C#CCn1c(N[C@@H](C)c2ccc(C(F)(F)F)cc2)nc2c(c1=O)CN(C(=O)c1c(F)cccc1F)CC2 [Example 2478, 6-(2,6-difluorobenzoyl)-3-(2-propynyl)-2-[(S)-1-(4-trifluoromethylphenyl)ethylamino]-5,6,7,8-tetrahydro-3H-pyrido[4,3-d]pyrimidin-4-one]",9
5,"COn1c(N[C@@H](C)c2ccc(C(F)(F)F)cc2)nc2c(c1=O)CN(C(=O)c1ccc(C)c(F)c1)CC2 [Example 2457, 6-(3-fluoro-4-methylbenzoyl)-3-methoxy-2-[(S)-1-(4-trifluoromethylphenyl)ethylamino]-5,6,7,8-tetrahydro-3H-pyrido[4,3-d]pyrimidin-4-one]",8
6,"C=Cc1ccc(C(=O)N2CCc3nc(N[C@@H](C)c4ccc(C(F)(F)F)cc4)n(OC)c(=O)c3C2)cc1 [Example 2456, 3-methoxy-2-[(S)-1-(4-trifluoromethylphenyl)ethylamino]-6-(4-vinylbenzoyl)-5,6,7,8-tetrahydro-3H-pyrido[4,3-d]pyrimidin-4-one]",6
7,"CC#CCn1c(N[C@@H](C)c2ccc(C(F)(F)F)cc2)nc2c(c1=O)CN(C(=O)c1ccc(C)c(C)c1)CC2 [Example 2447, 3-(2-butynyl)-6-(3,4-dimethylbenzoyl)-2-[(S)-1-(4-trifluoromethylphenyl)ethylamino]-5,6,7,8-tetrahydro-3H-pyrido[4,3-d]pyrimidin-4-one]",41
8,"C#CCCn1c(N[C@@H](C)c2ccc(C(F)(F)F)cc2)nc2c(c1=O)CN(C(=O)c1ccc(C(=O)N(C)C)cc1)CC2 [Example 2494, 4-{3-(3-butynyl)-4-oxo-2-[(S)-1-(4-trifluoromethylphenyl)ethylamino]-3,5,7,8-tetrahydro-4H-pyrido[4,3-d]pyrimidine-6-carbonyl}-N,N-dimethylbenzamide]",201
9,"C#CCCn1c(N[C@@H](C)c2ccc(C(F)(F)F)cc2)nc2c(c1=O)CN(C(=O)c1ccc(C)cc1)CC2 [Example 2443, 3-(3-butynyl)-6-(4-methylbenzoyl)-2-[(S)-1-(4-trifluoromethylphenyl)ethylamino]-5,6,7,8-tetrahydro-3H-pyrido[4,3-d]pyrimidin-4-one]",41
10,"COn1c(NC(CCC(F)(F)F)c2ccc(Cl)cc2)nc2c(c1=O)CN(C(=O)c1ccc(Cl)cc1)CC2 (centres unmarked) [Example 2450, 6-(4-chlorobenzoyl)-2-[1-(4-chlorophenyl)-4,4,4-trifluorobutylamino]-3-methoxy-5,6,7,8-tetrahydro-3H-pyrido[4,3-d]pyrimidin-4-one]",121
11,"COn1c(N[C@H](c2ccc(Cl)cc2)C(C)C)nc2c(c1=O)CN(C(=O)c1cc3ccccn3n1)CC2 [Example 2483, 2-[(S)-1-(4-chlorophenyl)-2-methylpropylamino]-3-methoxy-6-(pyrazolo[1,5-a]pyridine-2-carbonyl)-5,6,7,8-tetrahydro-3H-pyrido[4,3-d]pyrimidin-4-one]",13
12,"COn1c(N[C@@H](C)c2ccc(C(F)(F)F)cc2)nc2c(c1=O)CN(C(=O)COc1ccc(C#N)cc1)CC2 [Example 2468, 4-(2-{3-methoxy-4-oxo-2-[(S)-1-(4-trifluoromethylphenyl)ethylamino]-3,5,7,8-tetrahydro-4H-pyrido[4,3-d]pyrimidin-6-yl}-2-oxo-ethoxy)benzonitrile]",6
13,"CC[C@H](Nc1nc2c(c(=O)n1OC)CN(C(=O)c1ccc(C#N)cc1F)CC2)c1ccc(C(F)(F)F)cc1 [Example 2482, 3-fluoro-4-{3-methoxy-4-oxo-2-[(S)-1-(4-trifluoromethylphenyl)propylamino]-3,5,7,8-tetrahydro-4H-pyrido[4,3-d]pyrimidine-6-carbonyl}benzonitrile]",8
14,"COn1c(N[C@@H](C)c2ccc(Cl)cc2)nc2c(c1=O)CN(C(=O)c1cc3cccnc3s1)CC2 [Example 2495, 2-[(S)-1-(4-chlorophenyl)ethylamino]-3-methoxy-6-(thieno[2,3-b]pyridine-2-carbonyl)-5,6,7,8-tetrahydro-3H-pyrido[4,3-d]pyrimidin-4-one hydrochloride]",3
15,"C#CCCn1c(N[C@@H](C)c2ccc(C(F)(F)F)cc2)nc2c(c1=O)CN(C(=O)c1ccc(-n3ccnc3)cc1)CC2 [Example 2434, 3-(3-butynyl)-6-(4-imidazol-1-ylbenzoyl)-2-[(S)-1-(4-trifluoromethylphenyl)ethylamino]-5,6,7,8-tetrahydro-3H-pyrido[4,3-d]pyrimidin-4-one]",9
16,"COn1c(N[C@@H](C)c2ccc(C(F)(F)F)cc2)nc2c(c1=O)CN(C(=O)c1cc(-c3cccs3)n(C)n1)CC2 [Example 2464, 3-methoxy-6-(1-methyl-5-thiophen-2-yl-1H-pyrazole-3-carbonyl)-2-[(S)-1-(4-trifluoromethylphenyl)ethylamino]-5,6,7,8-tetrahydro-3H-pyrido[4,3-d]pyrimidin-4-one]",20
17,"COn1c(NCc2ccc(Cl)cc2)nc2c(c1=O)CN(C(=O)c1ccc(Cl)cc1)CC2 [Example 2462, 6-(4-chlorobenzoyl)-2-(4-chlorobenzylamino)-3-methoxy-5,6,7,8-tetrahydro-3H-pyrido[4,3-d]pyrimidin-4-one hydrochloride]",98
18,"C[C@H](Nc1nc2c(c(=O)n1N(C)C)CN(C(=O)COc1ccc(Cl)cc1)CC2)c1ccc(C(F)(F)F)cc1 [Example 2442, 6-[2-(4-chlorophenoxy)acetyl]-3-dimethylamino-2-[(S)-1-(4-trifluoromethylphenyl)ethylamino]-5,6,7,8-tetrahydro-3H-pyrido[4,3-d]pyrimidin-4-one hydrochloride]",140
19,"COn1c(N[C@H](c2ccc(Cl)cc2)C(C)C)nc2c(c1=O)CN(C(=O)c1ccc(-n3ccnc3)cc1)CC2 [Example 2481, 2-[(S)-1-(4-chlorophenyl)-2-methylpropylamino]-6-(4-imidazol-1-ylbenzoyl)-3-methoxy-5,6,7,8-tetrahydro-3H-pyrido[4,3-d]pyrimidin-4-one]",31
20,"COn1c(N[C@@H](C)c2ccc(C(F)(F)F)cc2)nc2c(c1=O)CN(C(=O)c1ccc(Cl)o1)CC2 [Example 2454, 6-(5-chloro-furan-2-carbonyl)-3-methoxy-2-[(S)-1-(4-trifluoromethylphenyl)ethylamino]-5,6,7,8-tetrahydro-3H-pyrido[4,3-d]pyrimidin-4-one]",48
